≈ marks a conversion by molar mass, not a printed value.
How the values were obtained:
[1] = test system: A549; assay: Antiproliferative activity against human A549 cells incubated for 48 hrs by MTT assay; type: functional, cell-based; conditions: A549, 48 h
[2] = test system: BE(2)-C; assay: Antiproliferative activity against human BE2C cells incubated for 48 hrs by MTT assay; type: functional, cell-based
[3] = test system: U-87 MG; assay: Antiproliferative activity against human U-87 MG cells incubated for 48 hrs by MTT assay; type: functional, cell-based, U-87MG ATCC
[4] = test system: HCT-116; assay: Antiproliferative activity against human HCT-116 cells incubated for 48 hrs by MTT assay; type: functional, cell-based; conditions: HCT-116, 48 h
[5] = Metabolic stability in human liver microsomes assessed as compound remaining incubated for 30 mins; type: ADME, Microsome; conditions: microsomes, 0.5 h
[6] = Metabolic stability in human liver microsomes assessed as compound remaining incubated for 60 mins; type: ADME, Microsome; conditions: microsomes, 1 h
[7] = Metabolic stability in human liver microsomes assessed as compound remaining incubated for 10 mins; type: ADME, Microsome; conditions: read-out: Stability
[8] = Metabolic stability in human liver microsomes assessed as compound remaining incubated for 20 mins; type: ADME, Microsome; conditions: liver microsomes, read-out: Stability
[9] = Aqueous solubility of compound at 1 mg incubated for 10 mins; type: physicochemical
[10] = Metabolic stability in human liver microsomes assessed as intrinsic clearance; type: ADME, Microsome; conditions: read-out: CLH
[11] = Metabolic stability in human liver microsomes assessed as half life; type: ADME, Microsome
[12] = Metabolic stability in human liver microsomes assessed as compound remaining incubated for 5 mins; type: ADME, Microsome; conditions: read-out: Stability
[13] = test system: BE(2)-C; assay: Antitumor activity against human BE2C cells xenografted in nude mouse assessed as tumor growth inhibition at 5 mg/kg, ip treated for every 3 days relative to control; type: functional; conditions: 72 h, time 3 day, read-out: TGI
[14] = molecular target: T1, Histone deacetylase 8 (Homo sapiens, UniProt Q9BY41); assay: Inhibition of HDAC8 (unknown origin)
T1 sequence (Q9BY41 whole entry): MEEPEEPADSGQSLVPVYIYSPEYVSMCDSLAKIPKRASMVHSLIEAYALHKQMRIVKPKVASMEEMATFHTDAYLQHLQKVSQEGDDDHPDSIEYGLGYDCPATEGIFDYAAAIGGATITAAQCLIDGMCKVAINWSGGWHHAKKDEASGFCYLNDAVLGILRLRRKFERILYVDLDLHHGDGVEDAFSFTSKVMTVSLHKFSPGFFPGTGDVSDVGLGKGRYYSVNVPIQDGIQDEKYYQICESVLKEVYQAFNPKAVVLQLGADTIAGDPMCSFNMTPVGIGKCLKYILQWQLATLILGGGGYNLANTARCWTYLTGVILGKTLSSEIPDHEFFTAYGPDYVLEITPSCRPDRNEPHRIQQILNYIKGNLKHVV

[15] = molecular target: Histone deacetylase 1 (Homo sapiens, UniProt Q13547); assay: Inhibition of HDAC1 (unknown origin)
Histone deacetylase 1, sequence (Q13547 whole entry): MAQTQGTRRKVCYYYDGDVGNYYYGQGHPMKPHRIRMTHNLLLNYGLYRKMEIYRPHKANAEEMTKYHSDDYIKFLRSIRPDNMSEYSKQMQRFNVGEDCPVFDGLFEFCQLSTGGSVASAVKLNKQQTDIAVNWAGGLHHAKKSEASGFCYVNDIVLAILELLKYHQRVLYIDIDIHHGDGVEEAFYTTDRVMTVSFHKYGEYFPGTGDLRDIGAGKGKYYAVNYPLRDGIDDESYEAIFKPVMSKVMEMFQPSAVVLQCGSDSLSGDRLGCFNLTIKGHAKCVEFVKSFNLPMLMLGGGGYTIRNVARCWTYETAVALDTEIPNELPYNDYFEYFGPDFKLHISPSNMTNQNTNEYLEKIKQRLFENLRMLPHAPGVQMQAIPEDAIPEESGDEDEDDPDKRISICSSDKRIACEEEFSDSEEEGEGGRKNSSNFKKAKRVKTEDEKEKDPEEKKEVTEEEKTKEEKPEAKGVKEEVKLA

[16] = molecular target: T2, Protein deacetylase HDAC6 (Homo sapiens, UniProt Q9UBN7); assay: Inhibition of HDAC6 (unknown origin)
T2 sequence (Q9UBN7 whole entry): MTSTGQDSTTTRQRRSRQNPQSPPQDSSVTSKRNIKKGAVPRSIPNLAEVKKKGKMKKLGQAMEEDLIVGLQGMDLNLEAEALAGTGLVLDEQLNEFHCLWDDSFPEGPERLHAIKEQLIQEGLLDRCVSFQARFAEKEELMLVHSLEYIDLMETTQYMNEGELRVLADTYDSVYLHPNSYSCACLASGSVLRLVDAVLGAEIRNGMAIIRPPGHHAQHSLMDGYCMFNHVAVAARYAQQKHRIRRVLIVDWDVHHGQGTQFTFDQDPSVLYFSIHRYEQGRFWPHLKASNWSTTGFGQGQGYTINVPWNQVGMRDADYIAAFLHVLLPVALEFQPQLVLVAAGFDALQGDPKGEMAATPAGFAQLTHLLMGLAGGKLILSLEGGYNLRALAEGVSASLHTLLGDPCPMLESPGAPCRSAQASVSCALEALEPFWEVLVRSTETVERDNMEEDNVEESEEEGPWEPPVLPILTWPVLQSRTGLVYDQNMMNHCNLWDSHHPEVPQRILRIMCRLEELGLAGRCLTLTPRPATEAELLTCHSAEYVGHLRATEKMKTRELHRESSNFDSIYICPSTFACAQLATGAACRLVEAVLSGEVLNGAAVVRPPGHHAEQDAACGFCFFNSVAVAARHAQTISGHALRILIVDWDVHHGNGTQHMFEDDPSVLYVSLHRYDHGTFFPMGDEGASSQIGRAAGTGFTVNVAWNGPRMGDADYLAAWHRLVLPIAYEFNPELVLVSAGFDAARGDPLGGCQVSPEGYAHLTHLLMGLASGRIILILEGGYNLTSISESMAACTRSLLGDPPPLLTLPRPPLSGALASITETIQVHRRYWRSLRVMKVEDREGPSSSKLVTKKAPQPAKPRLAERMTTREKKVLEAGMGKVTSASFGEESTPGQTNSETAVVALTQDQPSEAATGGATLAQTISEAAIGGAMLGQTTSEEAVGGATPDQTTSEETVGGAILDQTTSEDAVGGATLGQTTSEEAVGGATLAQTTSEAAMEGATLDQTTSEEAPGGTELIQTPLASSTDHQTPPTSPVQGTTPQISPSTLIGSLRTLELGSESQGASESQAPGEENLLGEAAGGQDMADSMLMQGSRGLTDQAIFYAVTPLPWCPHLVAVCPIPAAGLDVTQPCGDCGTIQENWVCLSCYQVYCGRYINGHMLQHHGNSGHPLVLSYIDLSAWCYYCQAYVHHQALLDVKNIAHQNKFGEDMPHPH

[17] = molecular target: Tubulin (Sus scrofa, UniProt P02554+P02550); assay: Inhibition of tubulin polymerization of pig brain by absorbance based assay

SMILES: COc1ccc([C@H]2[C@H](C)C(=O)N2c2cc(OC)c(OC)c(OC)c2)cc1OCCCC(=O)NO
- IC50 [1]: 3650 nM
- IC50 [2]: 1810 nM
- IC50 [3]: 4400 nM
- IC50 [4]: > 10000 nM

SMILES: O=C(CCCCCCC(=O)Nc1ccccc1)NO [VORINOSTAT]
- Stability [5]: 105.7%
- Stability [6]: 92.8%
- remaining at 10 min [7]: 98.4%
- IC50 [2]: 2110 nM
- remaining at 20 min [8]: 99%
- solubility at 10 min [9]: 91.7 µg/mL (≈ 347 µM)
- CLint scaled [10]: < 8.6 mL/min/kg
- t1/2 [11]: 2.42 h
- remaining at 5 min [12]: 96.4%

SMILES: COc1ccc([C@H]2[C@H](CNC(=O)CCCC(=O)NO)C(=O)N2c2cc(OC)c(OC)c(OC)c2)cc1O
- IC50 [1]: > 10000 nM
- IC50 [2]: > 10000 nM
- IC50 [3]: > 10000 nM
- IC50 [4]: > 10000 nM

SMILES: COc1ccc([C@H]2[C@H](CNC(=O)c3ccc(C(=O)NO)cc3)C(=O)N2c2cc(OC)c(OC)c(OC)c2)cc1O
- IC50 [1]: 479 nM
- IC50 [2]: 303 nM
- IC50 [3]: > 10000 nM
- IC50 [4]: 500 nM

SMILES: COc1ccc([C@H]2[C@H](COC(=O)CCCC(=O)NO)C(=O)N2c2cc(OC)c(OC)c(OC)c2)cc1O
- IC50 [1]: > 10000 nM
- IC50 [2]: > 10000 nM
- IC50 [3]: > 10000 nM
- IC50 [4]: > 10000 nM

SMILES: COc1ccc([C@H]2[C@H](CNC(=O)CCC(=O)NO)C(=O)N2c2cc(OC)c(OC)c(OC)c2)cc1O
- IC50 [1]: > 10000 nM
- IC50 [2]: > 10000 nM
- IC50 [3]: > 10000 nM
- IC50 [4]: > 10000 nM

SMILES: CC(=O)O[C@H]1C(=O)[C@@]2(C)[C@H]([C@H](OC(=O)c3ccccc3)[C@]3(O)C[C@H](OC(=O)[C@H](O)[C@@H](NC(=O)c4ccccc4)c4ccccc4)C(C)=C1C3(C)C)[C@]1(OC(C)=O)CO[C@@H]1C[C@@H]2O [PACLITAXEL]
- inhibition in vivo at 5 mg/kg [13]: 44%

SMILES: COc1ccc([C@H]2[C@H](COC(=O)CCC(=O)NO)C(=O)N2c2cc(OC)c(OC)c(OC)c2)cc1O
- IC50 [1]: 16 nM
- IC50 [14]: 288 nM
- IC50 [15]: 301 nM
- IC50 [16]: 2410 nM
- IC50 [2]: 43 nM
- IC50 [3]: > 10000 nM
- IC50 [4]: > 10000 nM

SMILES: COc1ccc([C@H]2[C@H](COC(=O)c3ccc(C(=O)O)cc3)C(=O)N2c2cc(OC)c(OC)c(OC)c2)cc1O
- IC50 [1]: 326 nM
- IC50 [2]: 776 nM
- IC50 [3]: 432 nM
- IC50 [4]: 397 nM

SMILES: COc1ccc([C@H]2[C@H](C)C(=O)N2c2cc(OC)c(OC)c(OC)c2)cc1OCCCCCC(=O)NO
- IC50 [1]: 7820 nM
- IC50 [2]: 7690 nM
- IC50 [3]: > 10000 nM
- IC50 [4]: 464 nM

SMILES: COc1ccc([C@H]2[C@H](C)C(=O)N2c2cc(OC)c(OC)c(OC)c2)cc1OCCCCC(=O)NO
- IC50 [1]: 2340 nM
- IC50 [2]: 3970 nM
- IC50 [3]: > 10000 nM
- IC50 [4]: > 10000 nM

SMILES: C=C1C(=O)N(c2cc(OC)c(OC)c(OC)c2)[C@H]1c1ccc(OC)c(/C=C/C(=O)NO)c1
- IC50 [1]: 84 nM
- IC50 [2]: 35 nM
- IC50 [3]: 72 nM
- IC50 [4]: 60 nM

SMILES: COc1ccc(/C=C\c2cc(OC)c(OC)c(OC)c2)cc1O [COMBRETASTATIN A4]
- solubility at 10 min [9]: 1.04 µg/mL (≈ 3.29 µM)

SMILES: COc1ccc([C@H]2[C@@H](C)C(=O)N2c2cc(OC)c(OC)c(OC)c2)cc1/C=C/C(=O)NO
- IC50 [1]: 173 nM
- IC50 [2]: 317 nM
- IC50 [3]: 23 nM
- IC50 [4]: 304 nM

SMILES: C=C1C(=O)N(c2cc(OC)c(OC)c(OC)c2)[C@H]1c1ccc(OC)c(O)c1
- IC50 [1]: 128 nM
- IC50 [2]: 186 nM
- IC50 [3]: 143 nM
- IC50 [17]: 6600 nM
- IC50 [4]: 234 nM

SMILES: COc1ccc([C@H]2[C@H](C)C(=O)N2c2cc(OC)c(OC)c(OC)c2)cc1OCC(=O)NO
- IC50 [1]: 54 nM
- IC50 [2]: 30 nM
- IC50 [3]: 56 nM
- IC50 [4]: 82 nM

SMILES: C=C1C(=O)N(c2cc(OC)c(OC)c(OC)c2)[C@H]1c1ccc(OC)c(/C=C/CC(=O)NO)c1
- IC50 [1]: 1260 nM
- IC50 [2]: 45 nM
- IC50 [3]: 2140 nM
- IC50 [4]: 620 nM

From ChEMBL document CHEMBL5325505, “Discovery of chiral 1,4-diarylazetidin-2-one-based hydroxamic acid derivatives as novel tubulin polymerization inhibitors with histone deacetylase inhibitory activity” (Bioorg Med Chem, 2023)
